One assay addresses T1, human CRF2a receptor (Homo sapiens, UniProt Q13324).
T1 construct: expressed in transfected cells; host or cells: TeloHEAC cells
T1 sequence (Q13324 1-411): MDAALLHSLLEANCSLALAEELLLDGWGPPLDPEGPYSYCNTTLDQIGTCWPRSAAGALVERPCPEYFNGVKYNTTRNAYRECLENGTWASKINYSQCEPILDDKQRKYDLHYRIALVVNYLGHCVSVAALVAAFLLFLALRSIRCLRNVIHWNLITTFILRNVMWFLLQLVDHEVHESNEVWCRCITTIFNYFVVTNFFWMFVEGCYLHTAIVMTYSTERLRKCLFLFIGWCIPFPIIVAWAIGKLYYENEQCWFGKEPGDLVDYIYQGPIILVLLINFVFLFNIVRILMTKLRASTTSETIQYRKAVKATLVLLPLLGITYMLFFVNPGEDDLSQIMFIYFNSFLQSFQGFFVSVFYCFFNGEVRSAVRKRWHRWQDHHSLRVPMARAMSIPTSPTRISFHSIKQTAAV
Description: Activity at human CRF2a receptor, cAMP functional assay in TeloHEAC cells. It is filed as cell-based. Conditions: TeloHEAC cells stably expressing human CRF2a receptor, relative to urocortin 2 (100 nM = 100%). Put shortly:
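cAMP accumulation was measured by HTRF 665/620 nm ratio after 30 min at 37° C compound exposure (16 twofold dilutions) of CRF2a-expressing TeloHEAC cells, 10000/well, in HEPES-buffered HBSS plus IBMX. Activity was normalised to urocortin 2 at 100 nM (100%), and EC50 was the concentration giving half-maximal activation.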

Another assay deals with T2, CFR1R receptor (Homo sapiens, UniProt P34998).
T2 construct: host or cells: CHO-K1 (clone 2)
T2 sequence (P34998 24-415): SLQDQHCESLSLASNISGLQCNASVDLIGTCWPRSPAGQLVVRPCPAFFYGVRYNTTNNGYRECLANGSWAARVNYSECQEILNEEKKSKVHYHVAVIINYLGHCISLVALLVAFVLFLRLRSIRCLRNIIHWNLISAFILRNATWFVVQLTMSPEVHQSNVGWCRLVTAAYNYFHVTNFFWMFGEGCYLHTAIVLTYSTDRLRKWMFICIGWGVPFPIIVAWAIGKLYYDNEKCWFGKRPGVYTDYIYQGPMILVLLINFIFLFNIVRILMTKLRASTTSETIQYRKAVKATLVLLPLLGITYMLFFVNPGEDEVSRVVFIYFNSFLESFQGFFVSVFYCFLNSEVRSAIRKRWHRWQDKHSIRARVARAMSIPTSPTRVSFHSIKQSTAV
Put plainly: Activity at anti-target CFR1R receptor, cAMP assay in CRF1R-overexpression CHO-K1 cells. It is filed as cell-based. The conditions noted are these: 100% = Sauvagine at 100 nM; for EC50: cAMP. Put shortly:
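Run as for the TeloHAEC line, except the full-activation control well received Sauvagine (100 nM) and final density was 4000 cells/well. Cells from clone 2 came from frozen aliquots of near-confluent cultures.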

*1 amine or outer side, *2 acyl side, *3 side chain or, on linkers, in order; H or OH if unused. Where a SMILES comes first, the peptide text is derived from it. Side-chain parts run from the residue outwards. [ ]: non-standard residue; d: D form. The star is where a group is joined. C20 diacid = O=C(O)CCCCCCCCCCCCCCCCCCC(=O)*; C18 diacid = O=C(O)CCCCCCCCCCCCCCCCC(=O)*; C16 diacid = O=C(O)CCCCCCCCCCCCCCC(=O)*; γGlu = O=C(O)[C@H](CCC(=O)[*:2])N[*:1]; C14 diacid = O=C(O)CCCCCCCCCCCCC(=O)*; αMeL = CC(C)C[C@](C)(N)C(=O)O; Api = NC1(C(=O)O)CCNCC1; AEEA = NCCOCCOCC(=O)O; Aib = CC(C)(N)C(=O)O; Propionyl = CCC(=O)*

For `CCC(=O)N[C@H](C(=O)N[C@@H](CC(C)C)C(=O)N[C@@H](CO)C(=O)N[C@@H](CC(C)C)C(=O)N[C@@H](CC(=O)O)C(=O)N[C@@H](C(=O)N1CCC[C@H]1C(=O)N[C@H](C(=O)N[C@@H](CCCCN)C(=O)N[C@@H](CC(C)C)C(=O)N[C@@H](CCCCNC(=O)CC[C@H](NC(=O)CCCCCCCCCCCCCCC(=O)O)C(=O)O)C(=O)N[C@@H](CCCCN)C(=O)N[C@H](C(=O)N[C@@H](CC(C)C)C(=O)N[C@@H](CC(C)C)C(=O)N[C@@H](CCC(=O)O)C(=O)N[C@@H](CCC(N)=O)C(=O)N[C@@H](CCC(=O)O)C(=O)N[C@@H](CCCCN)C(=O)N[C@@H](CCC(N)=O)C(=O)N[C@@H](CCCCN)C(=O)N[C@@H](CCCCN)C(=O)N[C@@H](CCC(N)=O)C(=O)N[C@@H](CCCNC(=N)N)C(=O)N[C@@H](CCC(=O)O)C(=O)N[C@@H](CCC(N)=O)C(=O)N[C@@H](C)C(=O)N[C@@H](CCC(=O)O)C(=O)N[C@H](C(=O)N[C@@H](CC(N)=O)C(=O)NC(C)(C)C(=O)N[C@@H](CCC(N)=O)C(=O)N[C@H](C(=O)N[C@@H](CC(C)C)C(=O)N[C@@H](C)C(=O)N[C@@H](CCC(N)=O)C(=O)N[C@H](C(N)=O)C(C)C)[C@@H](C)CC)[C@@H](C)O)[C@@H](C)CC)[C@@H](C)CC)C(C)C)C(C)C` [compound 78] (Propionyl-VLSLD[dV]PIKLK([γGlu-C16 diacid])KILLEQEKQKKQREQAETN[Aib]QILAQV-NH2), on human CRF2a receptor, a half-maximal response (EC50) required 0.73 nM. Further, on CFR1R receptor, the “Emax (% I)” value came to 7 % I and the EC50 is greater than 250 nM.
On the same counts, the results for `CC[C@H](C)[C@H](NC(C)=O)C(=O)N[C@H](C(=O)N[C@@H](CC(C)C)C(=O)N[C@@H](CO)C(=O)N[C@@H](CC(C)C)C(=O)N[C@@H](CC(=O)O)C(=O)N[C@@H](C(=O)N1CCC[C@H]1C(=O)N[C@H](C(=O)N[C@@H](CCCCN)C(=O)N[C@@H](CC(C)C)C(=O)N[C@@H](CCCCNC(=O)COCCOCCNC(=O)COCCOCCNC(=O)CC[C@H](NC(=O)CCCCCCCCCCCCC(=O)O)C(=O)O)C(=O)N[C@@H](CCCCN)C(=O)N[C@H](C(=O)N[C@@H](CC(C)C)C(=O)N[C@@H](CC(C)C)C(=O)N[C@@H](CCC(=O)O)C(=O)N[C@@H](CCC(N)=O)C(=O)N[C@@H](CCC(=O)O)C(=O)N[C@@H](CCCCN)C(=O)N[C@@H](CCC(N)=O)C(=O)N[C@@H](CCCCN)C(=O)NC(C)(C)C(=O)N[C@@H](CCC(N)=O)C(=O)N[C@@H](CCCNC(=N)N)C(=O)N[C@@H](CCC(=O)O)C(=O)N[C@@H](CCC(N)=O)C(=O)N[C@@H](C)C(=O)N[C@@H](CCC(=O)O)C(=O)N[C@H](C(=O)N[C@@H](CC(N)=O)C(=O)NC1(C(=O)N[C@@H](CCC(N)=O)C(=O)N[C@H](C(=O)N[C@@H](CC(C)C)C(=O)N[C@@H](C)C(=O)N[C@@H](CCC(N)=O)C(=O)N[C@H](C(N)=O)C(C)C)[C@@H](C)CC)CCNCC1)[C@@H](C)O)[C@@H](C)CC)[C@@H](C)CC)C(C)C)C(C)C` [compound 173] (Ac-IVLSLD[dV]PIKLK([AEEA-AEEA-γGlu-C14 diacid])KILLEQEKQK[Aib]QREQAETN[Api]QILAQV-NH2) are 28.1 nM, −1 % I and greater than 250 nM.
On the same counts, the results for `CC[C@H](C)[C@H](NC(C)=O)C(=O)N[C@H](C(=O)N[C@@H](CC(C)C)C(=O)N[C@@H](CO)C(=O)N[C@@H](CC(C)C)C(=O)N[C@@H](CC(=O)O)C(=O)N[C@@H](C(=O)N1CCC[C@H]1C(=O)N[C@H](C(=O)N[C@@H](CCCCN)C(=O)N[C@@H](CC(C)C)C(=O)N[C@@H](CCCCNC(=O)CC[C@H](NC(=O)CCCCCCCCCCCCCCC(=O)O)C(=O)O)C(=O)N[C@@H](CCCCN)C(=O)N[C@H](C(=O)N[C@@H](CC(C)C)C(=O)N[C@@H](CC(C)C)C(=O)N[C@@H](CCCCN)C(=O)N[C@@H](CCC(N)=O)C(=O)N[C@@H](CCC(=O)O)C(=O)N[C@@H](CCCNC(=N)N)C(=O)N[C@@H](CCC(N)=O)C(=O)N[C@@H](CCCCN)C(=O)N[C@@H](CCCCN)C(=O)N[C@@H](CCC(N)=O)C(=O)N[C@@H](CCCNC(=N)N)C(=O)N[C@@H](CCC(=O)O)C(=O)N[C@@H](CCC(N)=O)C(=O)N[C@@H](C)C(=O)N[C@@H](CCC(=O)O)C(=O)N[C@@H](CCCCN)C(=O)N[C@@H](CC(N)=O)C(=O)NC(C)(C)C(=O)N[C@@H](CCC(N)=O)C(=O)N[C@H](C(=O)N[C@@H](CC(C)C)C(=O)N[C@@H](CCC(=O)O)C(=O)N[C@@H](CCC(N)=O)C(=O)N[C@H](C(N)=O)C(C)C)[C@@H](C)CC)[C@@H](C)CC)[C@@H](C)CC)C(C)C)C(C)C` [compound 21] (Ac-IVLSLD[dV]PIKLK([γGlu-C16 diacid])KILLKQERQKKQREQAEKN[Aib]QILEQV-NH2) are 0.34 nM, 5 % I and greater than 250 nM.
Turning to `CC[C@H](C)[C@H](NC(C)=O)C(=O)N[C@H](C(=O)N[C@@H](CC(C)C)C(=O)N[C@@H](CO)C(=O)N[C@@H](CC(C)C)C(=O)N[C@@H](CC(=O)O)C(=O)N[C@@H](C(=O)N1CCC[C@H]1C(=O)N[C@H](C(=O)NCC(=O)N[C@@H](CC(C)C)C(=O)N[C@@H](CCCCNC(=O)CC[C@H](NC(=O)CCCCCCCCCCCCCCCCCCC(=O)O)C(=O)O)C(=O)N[C@@H](CCCCN)C(=O)N[C@H](C(=O)N[C@@H](CC(C)C)C(=O)N[C@@H](CC(C)C)C(=O)N[C@@H](CCC(=O)O)C(=O)N[C@@H](CCC(N)=O)C(=O)N[C@@H](CCC(=O)O)C(=O)N[C@@H](CCCCN)C(=O)N[C@@H](CCC(N)=O)C(=O)N[C@@H](CCCCN)C(=O)N[C@@H](CCCCN)C(=O)N[C@@H](CCC(N)=O)C(=O)N[C@@H](CCCNC(=N)N)C(=O)N[C@@H](CCC(=O)O)C(=O)N[C@@H](CCC(N)=O)C(=O)N[C@@H](C)C(=O)N[C@@H](CCC(=O)O)C(=O)N[C@H](C(=O)N[C@@H](CC(N)=O)C(=O)NC1(C(=O)N[C@@H](CCC(N)=O)C(=O)N[C@H](C(=O)N[C@@H](CC(C)C)C(=O)N[C@@H](C)C(=O)N[C@@H](CCC(N)=O)C(=O)N[C@H](C(N)=O)C(C)C)[C@@H](C)CC)CCNCC1)[C@@H](C)O)[C@@H](C)CC)[C@@H](C)CC)C(C)C)C(C)C` [compound 227] (Ac-IVLSLD[dV]PIGLK([γGlu-C20 diacid])KILLEQEKQKKQREQAETN[Api]QILAQV-NH2), the midpoint of the response at human CRF2a receptor, the EC50, lay at 0.2 nM. Besides, the “Emax (% I)” value at CFR1R receptor was 97 % I.
With `CC[C@H](C)[C@H](NC(C)=O)C(=O)N[C@H](C(=O)N[C@@H](CC(C)C)C(=O)N[C@@H](CO)C(=O)N[C@@H](CC(C)C)C(=O)N[C@@H](CC(=O)O)C(=O)N[C@@H](C(=O)N1CCC[C@H]1C(=O)N[C@H](C(=O)N[C@@H](CCCCN)C(=O)N[C@@](C)(CC(C)C)C(=O)N[C@@H](CCCCNC(=O)COCCOCCNC(=O)COCCOCCNC(=O)CC[C@H](NC(=O)CCCCCCCCCCCCCCCCC(=O)O)C(=O)O)C(=O)N[C@@H](CCCCN)C(=O)N[C@H](C(=O)N[C@@H](CC(C)C)C(=O)N[C@@H](CC(C)C)C(=O)N[C@@H](CCC(=O)O)C(=O)N[C@@H](CCC(N)=O)C(=O)N[C@@H](CCC(=O)O)C(=O)N[C@@H](CCCCN)C(=O)N[C@@H](CCC(N)=O)C(=O)N[C@@H](CCCCN)C(=O)N[C@@H](CCCCN)C(=O)N[C@@H](CCC(N)=O)C(=O)N[C@@H](CCCNC(=N)N)C(=O)N[C@@H](CCC(=O)O)C(=O)N[C@@H](CCC(N)=O)C(=O)N[C@@H](C)C(=O)N[C@@H](CCC(=O)O)C(=O)N[C@H](C(=O)N[C@@H](CC(N)=O)C(=O)N[C@@H](C)C(=O)N[C@@H](CCC(N)=O)C(=O)N[C@H](C(=O)N[C@@H](CC(C)C)C(=O)N[C@@H](C)C(=O)N[C@@H](CCC(N)=O)C(=O)N[C@H](C(N)=O)C(C)C)[C@@H](C)CC)[C@@H](C)O)[C@@H](C)CC)[C@@H](C)CC)C(C)C)C(C)C` [compound 112] (Ac-IVLSLD[dV]PIK[αMeL]K([AEEA-AEEA-γGlu-C18 diacid])KILLEQEKQKKQREQAETNAQILAQV-NH2), the EC50 on human CRF2a receptor was 0.28 nM. In addition, at CFR1R receptor, the “Emax (% I)” value amounted to 3 % I and the EC50 was greater than 250 nM.

The values above are taken from patent US20260001928A1 (CORTERIA PHARMACEUTICALS, priority 2022, published 2026).
